4 molecules from ChEMBL document CHEMBL5030542, “Pillar[5]arene-Based Polycationic Glyco[2]rotaxanes Designed as Pseudomonas aeruginosa Antibiofilm Agents” (J Med Chem, 2021) can be followed below.

A short description of assay [1]: Binding affinity to recombinant Pseudomonas aeruginosa LecA expressed in Escherichia coli assessed as dissociation constant by isothermal titration calorimetry. For orientation: In ITC the heat of successive injections is recorded.
Assay [2] concerns Pseudomonas aeruginosa. In words: Binding affinity to recombinant Pseudomonas aeruginosa LecA expressed in Escherichia coli assessed as gibbs free energy change by isothermal titration calorimetry.
The test system of assay [3] is Pseudomonas aeruginosa. Put plainly: Binding affinity to recombinant Pseudomonas aeruginosa LecA expressed in Escherichia coli assessed as change in enthalpy by isothermal titration calorimetry.
For assay [4], the system named is Pseudomonas aeruginosa. Put plainly: Anti-bioflim activity against Pseudomonas aeruginosa PAO1 assessed as inhibition of bioflim formation incubated for 24 hrs by crystal violet staining based assay. In kind it is functional.
In assay [5] the test system is Pseudomonas aeruginosa. In words: Anti-bioflim activity against Pseudomonas aeruginosa PAO1 assessed as inhibition of bioflim formation measured at MBIC50 concentration incubated for 24 hrs by crystal violet staining based assay. In kind it is functional.
Assay [6] concerns the target Fucose-binding lectin PA-IIL (Pseudomonas aeruginosa (strain ATCC 15692 / DSM 22644 / CIP 104116 / JCM14847 / LMG 12228 / 1C / PRS 101 / PAO1), UniProt Q9HYN5). Put plainly: Binding affinity to recombinant Pseudomonas aeruginosa lecB expressed in Escherichia coli assessed as dissociation constant by isothermal titration calorimetry.
Assay [7] addresses Fucose-binding lectin PA-IIL (Pseudomonas aeruginosa (strain ATCC 15692 / DSM 22644 / CIP 104116 / JCM14847 / LMG 12228 / 1C / PRS 101 / PAO1)) (UniProt Q9HYN5). Put plainly: Binding affinity to recombinant Pseudomonas aeruginosa LecB expressed in Escherichia coli assessed as gibbs free energy change by isothermal titration calorimetry.
Assay [8] has the same target. In words: Binding affinity to recombinant Pseudomonas aeruginosa LecB expressed in Escherichia coli assessed as change in enthalpy by isothermal titration calorimetry.
Assay [9] relates to Pseudomonas aeruginosa. In words: Binding affinity to recombinant Pseudomonas aeruginosa LecA expressed in Escherichia coli assessed as change in entropy by isothermal titration calorimetry.
Assay [10] concerns the target Fucose-binding lectin PA-IIL (Pseudomonas aeruginosa (strain ATCC 15692 / DSM 22644 / CIP 104116 / JCM14847 / LMG 12228 / 1C / PRS 101 / PAO1)) (UniProt Q9HYN5). Put plainly: Binding affinity to recombinant Pseudomonas aeruginosa LecB expressed in Escherichia coli assessed as change in entropy by isothermal titration calorimetry.
The test system of assay [11] is Pseudomonas aeruginosa. Put plainly: Antibacterial activity against Pseudomonas aeruginosa PAO1 assessed as inhibition of bacterial growth for complete inhibition of bacterial growth incubated for 24 hrs. In kind it is functional.

Molecules are shown by their SMILES. The source made the active and inactive calls. The calls are words filed in the database; no cut-off is given here. Some results are limits rather than exact numbers.

The Kd is the concentration at which binding is half-saturated. What is called MIC is the lowest concentration that inhibits growth of the organism.

Chain of Fucose-binding lectin PA-IIL (Pseudomonas aeruginosa (strain ATCC 15692 / DSM 22644 / CIP 104116 / JCM14847 / LMG 12228 / 1C / PRS 101 / PAO1)) (Q9HYN5 as listed by the source): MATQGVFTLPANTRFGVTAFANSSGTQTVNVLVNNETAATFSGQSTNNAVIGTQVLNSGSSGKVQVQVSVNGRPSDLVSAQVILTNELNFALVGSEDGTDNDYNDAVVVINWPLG
Chain of Fucose-binding lectin PA-IIL (Q9HYN5 whole entry): as the sequence (Q9HYN5 as listed by the source) above

On to `CO[C@@H]1O[C@H](CO)[C@H](O)[C@H](O)[C@H]1O`, for which, in [1], the dissociation constant Kd was 55700 nM. The deltaG in the assay on Pseudomonas aeruginosa [2] was -5.81 kcal/mol. The deltaH in the assay with Pseudomonas aeruginosa [3] was -4.54 kcal/mol.
Regarding `NC[C@H]1O[C@H](O[C@H]2[C@H](O)[C@@H](O[C@H]3O[C@H](CO)[C@@H](O)[C@H](N)[C@H]3O)[C@H](N)C[C@@H]2N)[C@H](N)C[C@@H]1O` [TOBRAMYCIN], the MBIC50 in the assay with Pseudomonas aeruginosa [4] was 2 µM. Further, the “inhibition (INH)” value in the assay on Pseudomonas aeruginosa [5] is 92%.
Regarding `C[C@@H]1O[C@@H](OCCOCCn2cc(COCC(COCc3cn(CCOCCO[C@@H]4O[C@@H](C)[C@@H](O)[C@@H](O)[C@@H]4O)nn3)N=[N+]=[N-])nn2)[C@@H](O)[C@H](O)[C@@H]1O.OC[C@H]1O[C@@H](OCc2cn(CCCOc3cc4c(OCCn5cc(CO[C@@H]6O[C@H](CO)[C@H](O)[C@H](O)[C@H]6O)nn5)cc3Cc3cc(OCCn5cc(CO[C@@H]6O[C@H](CO)[C@H](O)[C@H](O)[C@H]6O)nn5)c(cc3OCCn3cc(CO[C@@H]5O[C@H](CO)[C@H](O)[C@H](O)[C@H]5O)nn3)Cc3cc(OCCn5cc(CO[C@@H]6O[C@H](CO)[C@H](O)[C@H](O)[C@H]6O)nn5)c(cc3OCCn3cc(CO[C@@H]5O[C@H](CO)[C@H](O)[C@H](O)[C@H]5O)nn3)Cc3cc(OCCn5cc(CO[C@@H]6O[C@H](CO)[C@H](O)[C@H](O)[C@H]6O)nn5)c(cc3OCCn3cc(CO[C@@H]5O[C@H](CO)[C@H](O)[C@H](O)[C@H]5O)nn3)Cc3cc(OCCCn5cc(CO[C@@H]6O[C@H](CO)[C@H](O)[C@H](O)[C@H]6O)nn5)c(cc3OCCn3cc(CO[C@@H]5O[C@H](CO)[C@H](O)[C@H](O)[C@H]5O)nn3)C4)nn2)[C@H](O)[C@@H](O)[C@H]1O`, the MBIC50 in the assay on Pseudomonas aeruginosa [4] is over 150 µM. Moreover, the equilibrium dissociation constant (Kd) in [1] was found to be 646 nM; in assay [6], 474 nM. Besides, the deltaG in the assay with Pseudomonas aeruginosa [2] is -8.46 kcal/mol; in assay [7] it was -8.63 kcal/mol. For the same molecule, the values for the deltaH (in the assay with Pseudomonas aeruginosa [3]; in [8]) were -25.1 kcal/mol and -14.7 kcal/mol, respectively. In addition, in the assay with Pseudomonas aeruginosa [9], the -TΔS turned out to be 16.6 kcal/mol. In assay [10], the deltaS worked out at 6.07 kcal/mol. Further, in the assay with Pseudomonas aeruginosa [5], the MBIC50 entry is “inactive”. Besides, in the assay with Pseudomonas aeruginosa [11], the minimum inhibitory concentration (MIC) is over 150 µM.
`OC[C@H]1O[C@@H](OCc2cn(CCOc3cc4c(OCCn5cc(CO[C@@H]6O[C@H](CO)[C@H](O)[C@H](O)[C@H]6O)nn5)cc3Cc3cc(OCCn5cc(CO[C@@H]6O[C@H](CO)[C@H](O)[C@H](O)[C@H]6O)nn5)c(cc3OCCn3cc(CO[C@@H]5O[C@H](CO)[C@H](O)[C@H](O)[C@H]5O)nn3)Cc3cc(OCCn5cc(CO[C@@H]6O[C@H](CO)[C@H](O)[C@H](O)[C@H]6O)nn5)c(cc3OCCn3cc(CO[C@@H]5O[C@H](CO)[C@H](O)[C@H](O)[C@H]5O)nn3)Cc3cc(OCCn5cc(CO[C@@H]6O[C@H](CO)[C@H](O)[C@H](O)[C@H]6O)nn5)c(cc3OCCn3cc(CO[C@@H]5O[C@H](CO)[C@H](O)[C@H](O)[C@H]5O)nn3)Cc3cc(OCCn5cc(CO[C@@H]6O[C@H](CO)[C@H](O)[C@H](O)[C@H]6O)nn5)c(cc3OCCn3cc(CO[C@@H]5O[C@H](CO)[C@H](O)[C@H](O)[C@H]5O)nn3)C4)nn2)[C@H](O)[C@@H](O)[C@H]1O`: the Kd in [1] was found to be 145 nM. The deltaG in the assay on Pseudomonas aeruginosa [2] was -9.35 kcal/mol. In addition, the deltaH in the assay on Pseudomonas aeruginosa [3] is -37.5 kcal/mol. In addition, the deltaS with Pseudomonas aeruginosa [9] was found to be 28.2 kcal/mol.
